These are literature values, as cited in patent US9186326B2 (Kimia Zist Parsian (KZP), priority 2014, dated 2015).

The test system of this data set is glucocorticoid effect.

For the substance Dexamethasone, the mineral corticoid effect result is “minimal mineral corticoid effect”. Further, where the note is “versus cortisol”, the “potency relative to cortisol in glucocorticoid effect” value is “twenty five”.
